Laboratory results published in patent US10881702B2, “Celastrol and derivatives thereof for the treatment of tumours and precancerous diseases of the skin” (PIERRE FABRE MEDICAMENT, priority 2016, dated 2021).

Assays:
[1] = Clinical monitoring: body weight of topically treated SKH-1 mice; type: in vivo, mice (SKH-1)
Description: (§1) Non-inbred hairless SKH-1 strain mice are most commonly used in preclinical dermatological research. These non-pigmented and immunocompetent mice allow easy manipulation of the skin, application of topical agents, exposure to UV radiation and easy visualisation of the cutaneous response. Wound healing, acute biological photo responses and skin carcinogenesis are well characterised in this mouse strain. In addition, the tumours induced in these mice resemble, at both the molecular and the morphological level, UV-induced malignant skin tumours in humans. In this study on healthy skin, 6- to 8-week-old SKH-1 females (18 to 20 grams; Charles River Laboratories) are treated topically with the various compounds.
Picato® (0.015% ingenol mebutate), used in humans to treat actinic keratosis lesions, was administered topically to the animals (2 to 3 animals per group) for 24 hours under a 19-mm-diameter, i.e., 2.83 cm^2, occlusive patch (Hill Top Research, USA). The patch is loaded with 200 μL of Picato® cream, i.e. 30 μg of active ingredient. The treated skin area is delimited by tattooing on each mouse and the patch is held on the mouse using Tegaderm™ film and Omnifix® and Elastoplast™ adhesive tape. The occlusive dressing is removed after 24 hours, and the animals are followed clinically for 3 to 4 weeks. […]

[2] = test system: healthy skin (epidermal keratinocytes); type: in vivo, mice (SKH-1); settings: occlusive patch 30 h
Description: Apoptosis is a fundamental event in cell development (proliferation). The visualisation of apoptosis and the subsequent healing phenomenon reflects the efficacy of medicaments in the treatment of precancerous and cancerous cells. Picato® (0.015% ingenol mebutate) is a product on the market which is indicated for the treatment of actinic keratosis. Picato® is known to induce cell death by a necrotic effect that rapidly eliminates dead cells, followed by a healing phase. To evaluate the “apoptotic” power of celastrol on skin cells (epidermal keratinocytes), we compared the apoptotic effect induced by the topical application of celastrol compared to that of a product already on the market.
as §1
Picato® (0.015% ingenol mebutate), used in humans to treat actinic keratosis lesions, was administered topically to the animals (2 to 3 animals per group) for 24 hours under a 19-mm-diameter, i.e., 2.83 cm^2, occlusive patch (Hill Top Research, USA). The patch is loaded with 200 μL of Picato® cream, i.e. 30 μg of active ingredient. The treated skin area is delimited by tattooing on each mouse and the patch is held on the mouse using Tegaderm™ film and Omnifix® and Elastoplast™ adhesive tape. The occlusive dressing is removed after 24 hours, and the animals are followed clinically for 3 to 4 weeks.
Celastrol (Euromedex) is formulated in a vehicle consisting of 5% DMSO-70% glycerol-25% water. The pH is adjusted by adding soda to around 8-8.5 in order to completely solubilise the powder. The initial concentration is 10 mg/mL then serial dilutions in the vehicle yield concentrations of 5 and 2.5 mg/mL. Celastrol is applied topically for 30 hours under a 19-mm-diameter occlusive patch. The patches are loaded with 200 μL of the various celastrol solutions, i.e. 2000 μg, 1000 μg or 500 μg of active ingredient.
The treated skin area is delimited by tattooing on each mouse and the patch is held on the mouse using Tegaderm™ film and Omnifix® and Elastoplast™ adhesive tape. The occlusive bandage is removed after 30 hours and the animals are followed clinically for 3 to 4 weeks.
The animals are weighed twice per week. The treated area of each animal is photographed two to three times per week in order to follow the progression of the cutaneous reaction and healing.

Compound: CC1=C(O)C(=O)C=C2C1=CC=C1[C@@]2(C)CC[C@@]2(C)[C@@H]3C[C@](C)(C(=O)O)CC[C@]3(C)CC[C@]12C [celastrol]
- systemic toxicity / tolerance ([1]; topical route at the doses used, SKH-1 mice): no systemic toxicity
- effect on the weight of SKH-1 mice ([1]; topical, occlusive patch, Picato 200 μL (30 μg) 24 h, celastrol 500-2000 μg 30 h, weighed twice per week): no effect on the weight
- scar area on day 28 ([2]; celastrol 1000 μg and 2000 μg doses): slight hypertrophy of the scar area
- cutaneous reaction first visible ([2]; celastrol 500, 1000, 2000 μg, 24 hours after discontinuation): 3 days
- healing process starts ([2]; celastrol 500-2000 μg, dose-dependent): 7 days
- depth of the pro-apoptotic action ([2]; celastrol 500-2000 μg, localised in the epidermis): superficial
- dose from which apoptosis of epidermal cells is induced in vivo ([2]; celastrol topical, dose-dependent): ≥ 500 μg/application
- haemorrhagic zones ([2]; celastrol, even at the highest dose (2000 μg)): no haemorrhagic zones are observed
